Columns and labels:
[1] = molecular target: T1, capsaicin receptor (pig DRG membranes) (Sus scrofa, UniProt F1RLJ0); test: biochemical; assay type: binding
T1 construct: tissue Mt; Airy Locker Co., Mt; Airy, MD; host or cells: pig dorsal root ganglia
Description: Membrane preparations are obtained from the DRG and Gasser ganglia of female Sprague-Dawley rats (250-300 g); animals are sacrificed by decapitation under ether anesthesia, the ganglia removed and collected into ice-cold disrupting buffer (5 mM KCl, 5.8 mM NaCl, 2 mM MgCl2, 12 mM glucose, 137 mM sucrose, 10 mM HEPES, 5 mM DTT, 2 mM EGTA, pH 7.4). After homogenization with the aid of a Polytron tissue homogenizer, samples are filtered over surgical gauze and then washed twice with the same buffer and stored at -70° C. Particulate fractions are obtained from other rat neural tissues (cerebellum, spinal cord, preoptic region, striatum, substantia nigra) and from DRG of pigs (Mt. Airy Locker Co., Mt. Airy, MD), sheep, cows (kindly provided by Dr. Solomon, USDA, Beltsville, MD), and chickens (Truslow Farms, Chesterton, MD) by a similar procedure.
Subcellular fractions are prepared by a modification of the method of Bastiaensen et al. (Bastiaensen, E., Miserez, B. and De Potter, W., Subcellular fractionation of bovine ganglion stellatum: co-storage of noradrenaline, Met-enkephalin and neuropeptide Y in large `dense-cored` vesicles, Brain Res., 442 (1988) 124-130. ) Briefly: DRG are dissected free from capsule, cut into small pieces with scissors, and then homogenized with a teflon pestle (20 strokes) in ice-cold 0.25 M sucrose/ 20 mM Tris-Cl (pH 7.4) buffer. The homogenate is filtered over surgical gauze; it is then centrifuged for 10 min at 2000 gmax, giving a pellet P1, and again at 10 000 gmax for 15 min giving a pellet P2. The P1 and P2 pellets are saved as nuclear and mitochondrial fractions for binding studies. The resulting supernatant is further centrifuged at 50 000 gmax for 60 min, and then the pellet is harvested as the plasma-membrane enriched microsomal fraction.
The binding assays are carried out in a volume of 250 ul, containing assay buffer (same as the disrupting buffer but omitting DTT and EGTA and including 0.75 mM CaCl2), 26-30 ug of membrane protein and 0.25 mg/ml bovine serum albumin. […] Tubes are kept on ice while the additions are made. The assay mixture is incubated for 10 min at 37° C.; it is then cooled on ice. 150 ul of the mixture is pipetted onto Whatman GF/C or GF/F glass fiber filters presoaked with 10 mg/ml bovine serum albumin in 20 mM Tris-Cl (pH 7.4) and filtered immediately. An aliquot of 50 ul of the mixture is removed to determine total radioactivity. The filters are washed with 100 ml of ice-cold 20 mM Tris-Cl, pH 7 4, containing 0.1 mg/ml bovine serum albumin, and the bound radioactivity is determined by scintillation counting. Non-specific binding is determined in the presence of 100-1000 nM non-radioactive RTX.
Binding data from saturation experiments using increasing concentrations of hot ligand are analyzed using the collection of computer programs described by McPherson (McPherson, G.A., Analysis of radioligand binding experiments: a collection of computer programs for the IBM PC, J.Pharmacol.Methods, 14 (1985) 213-228).
Scatchard and Hill transformations are performed by the Equilibrium Binding Data Analysis program referred to as EBDA. Data are further analyzed by the curvilinear regression program LIGAND (Munson, R.J. and Rodbard, D., LIGAND: a versatile computerized approach for characterization of ligand-binding systems, Anal.Biochem, 107 (1980) 220-239).
RTX binding is also analyzed in the presence of a fixed, low (60 pM or 300 pM) concentration of [^3 H]RTX and increasing concentrations of non-radioactive RTX or other ligand.

[2] = system: capsaicin receptor (sheep DRG); test: [^3H]RTX binding to sheep DRG membranes; conditions: DRG from sheep
[3] = system: substantia nigra; test: [^3H]RTX binding to rat substantia nigra
Description: Membrane preparations are obtained from the DRG and Gasser ganglia of female Sprague-Dawley rats (250-300 g); animals are sacrificed by decapitation under ether anesthesia, the ganglia removed and collected into ice-cold disrupting buffer (5 mM KCl, 5.8 mM NaCl, 2 mM MgCl2, 12 mM glucose, 137 mM sucrose, 10 mM HEPES, 5 mM DTT, 2 mM EGTA, pH 7.4). After homogenization with the aid of a Polytron tissue homogenizer, samples are filtered over surgical gauze and then washed twice with the same buffer and stored at -70° C. […]
The binding assays are carried out in a volume of 250 ul, containing assay buffer (same as the disrupting buffer but omitting DTT and EGTA and including 0.75 mM CaCl2), 26-30 ug of membrane protein and 0.25 mg/ml bovine serum albumin. […] An aliquot of 50 ul of the mixture is removed to determine total radioactivity. The filters are washed with 100 ml of ice-cold 20 mM Tris-Cl, pH 7 4, containing 0.1 mg/ml bovine serum albumin, and the bound radioactivity is determined by scintillation counting. Non-specific binding is determined in the presence of 100-1000 nM non-radioactive RTX. […]

[4] = molecular target: T2, capsaicin receptor (rat DRG) (Rattus norvegicus, UniProt O35433); test: RTX binding in DRG preparations after in vivo RTX treatment
T2 construct: homotetramer

[5] = system: striatum; test: [^3H]RTX binding to rat striatum
[6] = system: capsaicin receptor (cow DRG); test: [^3H]RTX binding to cow DRG membranes; conditions: DRG from cows
[7] = system: CD-1 mice; test: Induction of hypothermia in CD-1 mice; assay type: in vivo, mouse; conditions: 10^-5 g/kg s.c.
Source text: [^3 H]RTX (37 Ci/mmol) is synthesized by esterification of resiniferonol 9,13,14-orthophenylacetate (Chemicals for Cancer Research, Inc., Chaska, MN) at the C20 position with [^3 H]homovanillic acid (Chemical Synthesis and Analysis Laboratory, NCI-FCRF, Frederick, MD). The labelled compound is purified on HPLC and cochromatographed with authentic RTX (Chemicals for Cancer Research, Inc., Chaska, MN). The biological activity of [^3 H]RTX is confirmed in 2 assays: induction of hypothermia in CD-1 mice (10^-5 g/kg s.c.) and induction of ear edema in Sprague-Dawley rats (2×10^-7 g/ear).

T1 sequence (F1RLJ0 1-841): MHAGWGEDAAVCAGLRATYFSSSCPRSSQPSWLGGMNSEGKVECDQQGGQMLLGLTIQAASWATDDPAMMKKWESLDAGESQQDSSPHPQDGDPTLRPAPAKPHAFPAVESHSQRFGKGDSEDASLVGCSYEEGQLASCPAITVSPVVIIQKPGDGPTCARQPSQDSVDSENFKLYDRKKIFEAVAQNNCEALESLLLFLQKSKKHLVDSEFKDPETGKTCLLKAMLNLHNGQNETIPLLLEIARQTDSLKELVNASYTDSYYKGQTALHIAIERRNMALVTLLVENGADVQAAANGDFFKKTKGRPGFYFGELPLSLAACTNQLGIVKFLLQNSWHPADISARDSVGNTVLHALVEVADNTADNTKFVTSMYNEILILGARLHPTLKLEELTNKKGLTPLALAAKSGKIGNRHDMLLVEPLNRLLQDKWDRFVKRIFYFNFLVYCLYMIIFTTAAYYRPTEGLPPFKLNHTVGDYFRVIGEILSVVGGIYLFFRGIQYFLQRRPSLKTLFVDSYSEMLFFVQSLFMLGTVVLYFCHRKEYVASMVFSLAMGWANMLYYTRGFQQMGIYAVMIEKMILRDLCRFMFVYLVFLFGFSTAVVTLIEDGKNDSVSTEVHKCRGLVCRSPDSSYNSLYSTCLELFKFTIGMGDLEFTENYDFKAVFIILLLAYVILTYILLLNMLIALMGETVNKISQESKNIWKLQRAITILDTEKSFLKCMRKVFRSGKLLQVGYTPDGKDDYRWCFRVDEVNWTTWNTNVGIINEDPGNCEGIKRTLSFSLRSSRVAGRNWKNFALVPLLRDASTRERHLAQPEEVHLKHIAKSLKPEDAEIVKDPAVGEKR
T2 sequence (O35433 whole entry): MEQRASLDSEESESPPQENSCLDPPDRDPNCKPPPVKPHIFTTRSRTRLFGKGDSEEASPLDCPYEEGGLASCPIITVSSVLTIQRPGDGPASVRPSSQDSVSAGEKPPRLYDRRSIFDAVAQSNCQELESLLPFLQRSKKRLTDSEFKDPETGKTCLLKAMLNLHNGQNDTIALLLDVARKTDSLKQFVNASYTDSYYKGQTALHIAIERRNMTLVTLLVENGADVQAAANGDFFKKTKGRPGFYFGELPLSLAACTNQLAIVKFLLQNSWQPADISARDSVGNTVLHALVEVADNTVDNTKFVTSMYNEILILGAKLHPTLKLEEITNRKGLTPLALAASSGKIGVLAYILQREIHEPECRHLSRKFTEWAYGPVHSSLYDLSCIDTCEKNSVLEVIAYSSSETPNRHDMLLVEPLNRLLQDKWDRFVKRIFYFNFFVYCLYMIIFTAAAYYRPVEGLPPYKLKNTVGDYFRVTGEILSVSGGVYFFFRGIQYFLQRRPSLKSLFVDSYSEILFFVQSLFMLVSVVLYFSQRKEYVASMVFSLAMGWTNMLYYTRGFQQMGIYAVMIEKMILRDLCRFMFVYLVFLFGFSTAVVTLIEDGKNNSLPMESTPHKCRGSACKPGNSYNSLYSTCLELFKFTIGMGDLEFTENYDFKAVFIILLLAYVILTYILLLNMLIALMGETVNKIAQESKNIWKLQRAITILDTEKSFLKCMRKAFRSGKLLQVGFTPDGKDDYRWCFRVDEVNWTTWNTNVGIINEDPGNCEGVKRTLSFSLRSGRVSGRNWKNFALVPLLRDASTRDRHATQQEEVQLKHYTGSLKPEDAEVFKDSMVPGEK

C=C(C)[C@]12C[C@@H](C)[C@@]34O[C@](Cc5ccccc5)(O[C@@H]1[C@@H]3C=C(COC(=O)Cc1ccc(O)c(OC)c1)C[C@]1(O)C(=O)C(C)=C[C@@H]41)O2 [[^3 H]RTX, [^3 H]resiniferatoxin]
specific binding ([1]; DRG from pigs): Specific binding is observed | Bmax (summary) ([1]; pig DRG): 730 fmol/mg | specific [^3H]RTX binding after heating of membranes ([1]; pig DRG membranes heated to 55° C. for 10-20 min, 2 experiments): completely inactivates | time at which specific binding is maximal ([1]; pig DRG membranes, 37° C.): 10 min | Hill coefficient ([1]; pig DRG, partially purified membrane preparations): 0.9 | Bmax (Scatchard analysis) ([1]; pig DRG, partially purified membrane preparations, 2 separate determinations): 700 fmol/mg protein | Kd ([1]; pig DRG, partially purified membrane preparations, 2 separate determinations, LIGAND, read-out: Kd (Scatchard analysis)): 1.7 nM | Bmax (competition) ([1]; pig DRG, mean±SEM, 4 determinations): 730±80 fmol/ mg protein | specific binding [2]: Specific binding is observed | detection of [^3H]RTX binding [3]: very difficult | [^3H]RTX binding sites in neonatally treated animals [4]: very significant loss | detection of [^3H]RTX binding [5]: very difficult | specific binding [6]: Specific binding is observed | biological activity: induction of hypothermia [7]: confirmed

Reference: patent US5232684A, “Labelled resiniferatoxin, compositions thereof, and methods for using the same” (priority 1990, dated 1993)
